Marks after values point to notes of the source that are not given here.
How the values were obtained:
[1] = Animal assay (IV): high fat diet mice, 8 weeks, weight gain and fat; assay type: in vivo, B6 strain male mice
Protocol: B6 strain male mice were used in this example. There were five groups for test, respectively as the obese group, the resveratrol (61.5 mg/kg BW), the green tea extract (123 mg/kg BW), and experimental groups such as the formulation LB001 (338.25 mg/kg BW) and the formulation LB0008 (326 mg/kg BW). Five male animals were used in each group. During the test, high fat diets and experimental substrates were fed for all groups to induce obesity during eight weeks. In the experimental duration, weight and the average daily intake were recorded. In the end of the experiment, the mice were sacrificed to weight epididymis fat, perinephric fat, and mesenteric fat and calculate the total amount of visceral fat; groin fat and extra-abdominal fat were weighed to calculate the amount of subcutaneous fat.

[2] = Animal assay (I): high fat diet rats, weight gain and body fat; assay type: in vivo, Sprague-Dawley (SD) male rats; settings: positive control group
Protocol: Sprague-Dawley (SD) male rats were used in this example. There were six groups for test, respectively as a normal group, an obese group, a positive control group (Orlistat®, 18.6 mg/kg BW), a low-dose experimental group (the formulation LB004: 223.2 mg/kg BW), a medium-dose experimental group (the formulation LB004: 446.4 mg/kg BW), and a high-dose experimental group (the formulation LB004: 892.8 mg/kg BW). Ten male rats were used in each group. During the 8-week experiment period, high fat diets were fed ad libitum for all groups except […]. Three formulation LB004 doses of the present invention were orally given simultaneously during the experiment and body weight loss and lipid mass reduction were evaluated. Bodyweight, food and water intake were recorded weekly. In the end of the test, total amount of fat and the percentage of fat dry weight were determined.
In the end of the experiment, the rats were sacrificed. Epididymis fat, perinephric fat, and mesenteric fat were weighted and the total amount of internal fat was calculated. In addition, the fat of groin and the extraperitoneal fat were weighted to calculate the amount of subcutaneous fat.
In addition, the wet weights of rat bodies were weighed. Then the rat bodies were dried in an oven at 105° C. to constant dry weight for measuring dry weights of the rat bodies. The rat bodies were pulverized by uniform homogenizer. The percentage of dry weight and the amount of crude fat of whole animals is calculated by diethyl ether extraction at 2 to 3 different sampling points.

Row | Structure (SMILES) | visceral fat, subcutaneous fat, and total fat mass compared with the obese group ([1]; resveratrol 61.5 mg/kg BW, FIG. 10) | inhibitory effect on weight gain ([1]; resveratrol alone 61.5 mg/kg BW, FIG. 9) | fat (dry weight) ([2]; 18.6 mg/kg B.W., 8 weeks) | total fat mass ([2]; 18.6 mg/kg B.W., 8 weeks) | total weight gain ([2]; 18.6 mg/kg B.W., 8 weeks) | body fat decrease compared with the obese group ([2]; 18.6 mg/kg BW) | body weight decline compared with the obese group ([2]; 18.6 mg/kg BW) | decrease of percentage of fat dry weight compared with the obese group ([2]; 18.6 mg/kg BW)
1 | Oc1ccc(C=Cc2cc(O)cc(O)c2)cc1 [resveratrol] | no statistical difference | poor and had no statistical difference from the obese group |  |  |  |  |  | 
2 | CCCCCCCCCCC[C@@H](C[C@@H]1OC(=O)[C@H]1CCCCCC)OC(=O)[C@H](CC(C)C)NC=O [Orlistat®, Orlistat] |  |  | 31.6 ± 6.0^a % | 38.1 ± 8.8^c g | 240.1 ± 24.4^c g | 23.9% | 12.0% | 17.4%
